In publication PMC9598282 (Antibiotics, 2022):
Where “and” joins values, the source holds several entries; their conditions need not be identical. Equal entries are not always repeated. Where two headings read alike, the source gives them in different places.

Legend:
P. aeruginosa 101243 = assay: Checkerboard assay; type: cell-based, Pseudomonas aeruginosa; details: one value per checkerboard plate; for MIC: Pseudomonas aeruginosa, 101243, agent alone; for MIC alone: agent alone
Method: (§1) The adjuvant properties of the guanidinylated polymyxins were evaluated using the checkerboard assay as previously described. The bacterial solution was prepared as described in the antimicrobial susceptibility assay. The antibiotic of interest and the adjuvant were serially diluted two-fold along the x- and y-axis on a 96-well plate, respectively, resulting in varying concentrations of both agents in each well. Equal volumes of bacterial solution were added to the designated wells. The well consisting of bacterial solution served as the positive control, while the wells containing only media served as the negative control. The plate was then incubated at 37 °C for 18 h. After incubation, an Emax Plus microplate reader (Molecular Devices, Union City, CA, USA) was used to measure the OD at a wavelength of 590 nm to confirm the turbidity. The fractional inhibitory concentration (FIC) index was then determined to establish the relationship between the antibiotic and adjuvant. The FIC index corresponds to the sum of the FICs of the antibiotic and adjuvant. The FIC of each agent is calculated by dividing its MIC when it is used in combination by its MIC when used alone. FIC indices ≤0.5, 0.5 < x ≤ 4 and >4 indicate synergy, additivity and antagonism, respectively.

[1] = test system: P. aeruginosa P264-104354; assay: Checkerboard assay; type: cell-based, Pseudomonas aeruginosa; details: one value per checkerboard plate; for MIC: Pseudomonas aeruginosa, P264104354, agent alone
Method: as §1

[2] = test system: P. aeruginosa P262-101856; assay: Checkerboard assay; type: cell-based, Pseudomonas aeruginosa; details: one value per checkerboard plate; for MIC: Pseudomonas aeruginosa, P262101856, agent alone; for MIC alone: agent alone
Method: as §1

P. aeruginosa P259-96918 = assay: Checkerboard assay; type: cell-based, Pseudomonas aeruginosa; details: Pseudomonas aeruginosa, P25996918; agent alone, one value per checkerboard plate
Method: as §1

P. aeruginosa PA 107092 [3] = assay: Time-kill assay; type: cell-based, Pseudomonas aeruginosa; details: monotherapy, 8 μg/mL
Method: To study the time-dependent killing effects of the drug combinations, the time-kill kinetics were assessed. The time-kill assay was performed following the 8 μM (2 μg/mL) concentration of avibactam used in the checkerboard assay. […] This concentration also corresponds to the susceptibility breakpoint of both β-lactams.
For the preparation of the bacterial solution, an overnight grown culture was diluted in 0.85% saline solution and adjusted to 0.5 McFarland turbidity. […] The culture tubes were incubated at 37 °C, shaking at 250 rpm. At the appointed time intervals, a 100-μL aliquot was taken from each tube, serially diluted in phosphate-buffered saline (PBS) and plated on LB agar plates. The plates were incubated at 37 °C, and bacterial colonies were counted after 18 h. The bactericidal or bacteriostatic activity is determined based on the decrease in CFU over the time period. Bactericidal activity corresponds to ≥3 log10 reduction in CFU/mL, while bacteriostatic activity corresponds to <3 log10 reduction in CFU/mL.

A. baumannii AB031 = assay: Checkerboard assay; type: cell-based, Acinetobacter baumannii; details: Acinetobacter baumannii, AB031, agent alone, one value per checkerboard plate
Method: as §1

P. aeruginosa PAO1 = assay: microbe, parasite or virus in culture; type: cell-based, Pseudomonas aeruginosa; details: for MIC: Pseudomonas aeruginosa, PAO1, 18 h, agent alone, one value per checkerboard plate, read-out: MIC alone
Method: as §1

P. aeruginosa 114228 = assay: microbe, parasite or virus in culture; type: cell-based, Pseudomonas aeruginosa; details: one value per checkerboard plate; for MIC: Pseudomonas aeruginosa, 114228, agent alone; for MIC alone: agent alone
Method: as §1

A. baumannii AB027 = assay: microbe, parasite or virus in culture; type: cell-based, Acinetobacter baumannii; details: Acinetobacter baumannii, AB027, agent alone, one value per checkerboard plate
Method: as §1

A. baumannii 92247 = assay: microbe, parasite or virus in culture; type: cell-based, Acinetobacter baumannii; details: one value per checkerboard plate; for MIC: Acinetobacter baumannii, 92247, agent alone; for MIC alone: agent alone
Method: as §1

A. baumannii ATCC 17978 = assay: microbe, parasite or virus in culture; type: cell-based, Acinetobacter baumannii; details: for MIC: Acinetobacter baumannii, ATCC17978, 18 h, agent alone, one value per checkerboard plate, read-out: MIC alone
Method: as §1

E. coli ATCC 25922 = assay: microbe, parasite or virus in culture; type: cell-based, Escherichia coli; parameters: key to FIC index antibiotic + GCol / FIC index antibiotic + GPMB: sum of FICs; ≤0.5 synergy, 0.5–4 additivity, >4 antagonism; details: for MIC: Escherichia coli, ATCC25922, 18 h, agent alone, one value per checkerboard plate, read-out: MIC alone
Method: as §1

E. coli 107115 = assay: microbe, parasite or virus in culture; type: cell-based, Escherichia coli; details: Escherichia coli, 107115, agent alone, one value per checkerboard plate
Method: as §1

P. aeruginosa PA 88949 = type: cell-based, Pseudomonas aeruginosa; details: one value per checkerboard plate
Method: as §1

P. aeruginosa PA 107092 [4] = type: cell-based, Pseudomonas aeruginosa
Method: as §1

P. aeruginosa PA 86052 = type: cell-based, Pseudomonas aeruginosa; details: one value per checkerboard plate
Method: as §1

P. aeruginosa PA 109084 = type: cell-based, Pseudomonas aeruginosa
Method: as §1

A. baumannii 110193 = assay: microbe, parasite or virus in culture; type: cell-based, Acinetobacter baumannii; details: Acinetobacter baumannii, 110193, agent alone, one value per checkerboard plate
Method: as §1

[5] = one value per checkerboard plate

| SMILES | MIC (P. aeruginosa 101243) [µg/mL] | MIC alone (P. aeruginosa 101243) [µg/mL] | MIC [1] [µg/mL] | MIC [2] [µg/mL] | MIC alone [2] [µg/mL] | MIC (P. aeruginosa P259-96918) [µg/mL] | log10 increase (bacterial growth) over 24 h (P. aeruginosa PA 107092 [3]) | MIC (A. baumannii AB031) [µg/mL] | Absolute MIC of antibiotic at 4 μg/mL GCol (P. aeruginosa PAO1) [µg/mL] | MIC (P. aeruginosa PAO1) [µg/mL] | MIC (P. aeruginosa 114228) [µg/mL] | MIC alone (P. aeruginosa 114228) [µg/mL] | MIC (A. baumannii AB027) [µg/mL] | MIC (A. baumannii 92247) [µg/mL] | MIC alone (A. baumannii 92247) [µg/mL] | Absolute MIC of antibiotic at 2 μg/mL GCol (A. baumannii ATCC 17978) [µg/mL] | Absolute MIC of antibiotic at 2 μg/mL GPMB (A. baumannii ATCC 17978) [µg/mL] | MIC (A. baumannii ATCC 17978) [µg/mL] | Absolute MIC of antibiotic at 2 μg/mL GCol (E. coli ATCC 25922) [µg/mL] | Absolute MIC of antibiotic at 2 μg/mL GPMB (E. coli ATCC 25922) [µg/mL] | further results |
| --- | --- | --- | --- | --- | --- | --- | --- | --- | --- | --- | --- | --- | --- | --- | --- | --- | --- | --- | --- | --- | --- |
| C[C@H]1[C@H](NC(=O)/C(=N\OC(C)(C)C(=O)O)c2csc(N)n2)C(=O)N1S(=O)(=O)O [Aztreonam] | 16 | 32 | 64 | 32 | 64 | 32 | 2 to 3 log10 | 64 | 0.5 | 4 | 16 | 8 | 1020 | 128 | 256 | 64 | 32 | 64 | 0.031 | 0.016 | MIC alone ([1]; agent alone): 32 µg/mL; Absolute MIC of antibiotic at 4 μg/mL GPMB (P. aeruginosa PAO1): 0.25 µg/mL; FIC index antibiotic + GCol (E. coli ATCC 25922): 0.188; MIC (E. coli ATCC 25922): 0.25 µg/mL; MIC (E. coli 107115): 1020 µg/mL; MIC antibiotic alone (P. aeruginosa PA 88949): 16 µg/mL; MIC antibiotic alone (P. aeruginosa PA 107092 [4]; [5]): 32 µg/mL and 64 µg/mL; MIC antibiotic alone (P. aeruginosa PA 107092 [4]; plates with 8 μM avibactam): 16 µg/mL and 8 µg/mL; MIC antibiotic alone (P. aeruginosa PA 86052): 64 µg/mL and 32 µg/mL; MIC antibiotic alone (P. aeruginosa PA 109084; [5]): 64 µg/mL; MIC antibiotic alone (P. aeruginosa PA 109084; plates with 8 μM avibactam): 8 µg/mL |
| CC(C)(O/N=C(\C(=O)N[C@@H]1C(=O)N2C(C(=O)[O-])=C(C[n+]3ccccc3)CS[C@H]12)c1csc(N)n1)C(=O)O [Ceftazidime] | 64 | 32 | 64 | 8 | 16 | 512 | ~ 2 log10 | 32 | 0.25 | 2 | 4 | 8 | 2050 | 16 | 32 | 4 | 4 | 16 | 0.063 | 0.063 | MIC (A. baumannii 110193): 64 µg/mL; MIC (E. coli ATCC 25922): 0.25 µg/mL; MIC (E. coli 107115): 512 µg/mL; MIC antibiotic alone (P. aeruginosa PA 88949): 32 µg/mL; MIC antibiotic alone (P. aeruginosa PA 107092 [4]; [5]): 64 µg/mL; MIC antibiotic alone (P. aeruginosa PA 107092 [4]; plates with 8 μM avibactam): 16 µg/mL and 8 µg/mL; MIC antibiotic alone (P. aeruginosa PA 86052): 64 µg/mL; MIC antibiotic alone (P. aeruginosa PA 109084; [5]): 64 µg/mL and 128 µg/mL; MIC antibiotic alone (P. aeruginosa PA 109084; plates with 8 μM avibactam): 16 µg/mL |
